From BindingDB's records for PubMed 26907156 (n/a, 2016)

Biological target: CDK2/Cyclin E
Assay: Inhibition of CDK2/Cyclin E (unknown origin) using histone as substrate incubated for 30 mins in presence of gamma[33P]ATP by digital imaging analysis

IC50, 20 nM:
CC(C)n1cnc2c(NCc3cc(Cl)ccc3O)nc(NCCC(C)(C)O)nc21, CCC(CO)Nc1nc(NCc2cc(C)ccc2O)c2ncn(C(C)C)c2n1 (stereo not drawn), COc1cccc(CNc2nc(NC3CCCCC3N)nc3c2ncn3C(C)C)c1O (stereo not drawn)
